Measurements taken from patent US20250270216A1, “ANTI-INFECTIVE AGENTS” (UNIVERSITY OF DUNDEE, priority 2022, published 2025).

Target: T1, Human lysyl tRNA Synthetase (KRS) (Homo sapiens, UniProt Q15046)
T1 construct: His tag with PreScission site (His PP pET15b); made in house; host or cells: E. coli BL21 (DE3)
Assay: In vitro inhibition of human lysyl tRNA synthetase (KRS), Biomol green phosphate detection
Assay type: biochemical
Conditions: 3.5 μM ATP, 6 μM L-Lysine, 5 h room temperature; read-out: Hs KRS pIC50 (converted)
Protocol: The gene coding for Human KRS, codon optimized for expression in E. coli, was obtained from Genscript and cloned into a His PP pET15b vector using Nde1 and Xho1 restriction sites. The resulting vector was used to transform BL21 (DE3) competent cells for protein expression. A 120 ml overnight culture was set up and grown at 37° C. 200 rpm for 16 h and used the next day to inoculate 6 litres of Autoinduction+AMP medium. This culture was grown at 37° C. for 4 h then 20° C. for 20 h. The cells were harvested by centrifugation at 3,500 g for 30 min then stored at −20° C. The resulting cell pellet was 50 g. Lysis buffer (150 ml, 25 mM HEPES/500 mM NaCl/20 mM imidazole/2 mM DTT/10% glycerol pH 7.5/protease inhibitor tablets/DNAase) was added and the pellets for defrosted at room temperature for approximately 10 min. The slurry was then passed through a Cell Disrupter (Constant Systems) set at […] to lyse the cells. The sample was then centrifuged at 40,000 g for 20 min. The supernatant was then filtered using syringe filters to 0.45 μm. The supernatant was loaded onto a 5 ml HiTrap Ni HP column that had been equilibrated with BufferA (25 mM HEPES/500 mM NaCl/20 mM Imidazole/2 mM DTT/10% Glycerol pH 7.5) at 5 ml/min using an AKTA Pure system. Once loaded the column was washed with 10 column volumes buffer A. A 5% step of Buffer B (25 mM HEPES/500 mM NaCl/500 mM Imidazole/2 mM DTT/10% Glycerol pH 7.5) was then used to wash off His rich contaminating proteins. A gradient of 5-50% B was used to elute the protein. Approximately 55 mg of protein was present in the fractions containing the HsKRS protein. The sample was then passed through a 0.2 μm filter, before loading onto a XK26/60 Superdex 200 column equilibrated with Buffer C (25 mM HEPES/150 mM NaCl/2 mM DTT/10% glycerol pH 7.0) using an AKTA Pure system at 4° C. at 2 ml/min. The sample was then dialyzed into 25 mM HEPES/500 mM NaCl//2 mM DTT/10% glycerol/0.25% azide pH 7.0. The protein was concentrated to 1 mg/ml and frozen at −80° C. Approximately 23 mg of protein was produced.
Assay Method for Measurement of In Vitro Inhibition of Human lysyl tRNA Synthetase (KRS)
Potency of compounds was determined in 10 points dose-response inhibition curves. Compounds were transferred into 384-well clear bottom plates (Greiner Bio-One, 781101) using an Echo 550 acoustic dispenser (Labcyte). Using an automatic liquid dispenser, 50 μL reaction mixes were prepared by adding 25 μL of substrate mix into all wells followed by the addition of 25 μL enzyme mix into all wells (final reaction: 30 mM Tris-HCl, pH 8.0, 40 mM MgCl2, 140 mM NaCl, 30 mM KCl, 0.01% Brij-35, 1 mM DTT, 3.5 μM ATP, 6 μM L-Lysine, 200 nM […] and 0.5 U/mL Pyrophosphatase). Complete inhibition control reactions were performed in the presence of 100 μM of control compoundand the plates were incubated at room temperature for 5 h. Reactions were stopped by the addition of Biomol green (50 μL: Enzo Life Sciences) with the amount of free phosphate detected by measuring absorbance (650 nm) after 20 min further incubation (BMG Pherastar plate reader). Counter screen assays to eliminate direct inhibition of pyrophsphatase were performed using 0.5 U/mL pyrophosphatase and 3 μM pyrophosphate as substrate in the same assay buffer (30 mM Tris-HCl, pH 8.0, 40 mM MgCl2, 140 mM NaCl, 30 mM KCl, 0.01% Brij-35, 1 mM DTT) for 5 hours at room temperature. Biomol green was added and incubated for 20 min before detection as above. Samples were run in duplicate and data was processed and analysed using ActivityBase (IDBS).

T1 sequence (Q15046 whole entry): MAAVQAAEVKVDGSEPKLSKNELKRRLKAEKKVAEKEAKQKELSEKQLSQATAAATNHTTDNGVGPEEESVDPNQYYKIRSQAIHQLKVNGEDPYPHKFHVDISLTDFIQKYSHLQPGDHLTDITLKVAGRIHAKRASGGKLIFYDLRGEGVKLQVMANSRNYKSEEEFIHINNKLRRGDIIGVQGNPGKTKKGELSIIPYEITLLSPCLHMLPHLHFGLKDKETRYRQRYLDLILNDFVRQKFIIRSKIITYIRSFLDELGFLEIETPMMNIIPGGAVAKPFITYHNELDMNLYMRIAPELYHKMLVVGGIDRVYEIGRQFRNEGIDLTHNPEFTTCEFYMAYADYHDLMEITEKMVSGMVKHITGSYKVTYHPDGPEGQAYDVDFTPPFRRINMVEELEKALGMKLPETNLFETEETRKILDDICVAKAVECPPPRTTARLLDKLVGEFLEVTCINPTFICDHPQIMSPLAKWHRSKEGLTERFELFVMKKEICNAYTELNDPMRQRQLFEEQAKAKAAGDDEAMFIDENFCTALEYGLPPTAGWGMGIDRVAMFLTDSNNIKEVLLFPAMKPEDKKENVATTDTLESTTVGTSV

Row | IC50 | SMILES
1 | > 100 µM | Nc1nc2c(c(C(F)(F)F)n1)C(=O)N(CC1CCCC3(CC3)C1)C2 (racemic) [Compound 4, 2-amino-6-(spiro[2.5]octan-5-ylmethyl)-4-(trifluoromethyl)-6,7-dihydro-5H-pyrrolo[3,4-d]pyrimidin-5-one]
2 | 20 µM | Nc1nc2c(c(C(F)(F)F)n1)C(=O)N(C[C@@H]1CCC[C@H](C(F)(F)F)C1)C2 [Compound 1, 2-amino-4-(trifluoromethyl)-6-(((1R,3S)-3-(trifluoromethyl)cyclohexyl)methyl)-6,7-dihydro-5H-pyrrolo[3,4-d]pyrimidin-5-one]
3 | 20 µM | Cc1nc(N)nc2c1C(=O)N(C[C@@H]1CCC[C@H](C(F)(F)F)C1)C2 [Compound 2, 2-amino-4-methyl-6-(((1R,3S)-3-(trifluoromethyl)cyclohexyl)methyl)-6,7-dihydro-5H-pyrrolo[3,4-d]pyrimidin-5-one]
4 | > 100 µM | Nc1nc2c(c(C(F)F)n1)C(=O)N(C[C@@H]1CCC[C@H](C(F)(F)F)C1)C2 [Compound 3, 2-amino-4-(difluoromethyl)-6-(((1R,3S)-3-(trifluoromethyl)cyclohexyl)methyl)-6,7-dihydro-5H-pyrrolo[3,4-d]pyrimidin-5-one]
